These results are taken from EP0364581A1, “METHOD OF STERILIZING PLANT POLLEN” (VSESOJUZNY NAUCHNO-ISSLEDOVATELSKY INST. SELSKOKHOZYAISTV. …, priority 1988, dated 1989).

Common to all, as to experiment: field test of gametocidal activity (sterilisation of anthers)
What all share (format): in vivo

Assay [1] concerns Diploider Roggen Chulpan. The settings on record: for pest or weed control at 8000 g/ha / percent sterility at 8000 g/ha: read-out: Prozentsatz der Sterilität; for response vs control in vivo at 8000 g/ha: read-out: Prozentsätz des Ansetzens der Körner bei freier Bestäubung. The text has this:
(§1) Die gametozide Aktivität der erfindungsgemäßen Sterilisationsmittel war in Feldversuch in verschiedenen bodenklimatischen Zonen mit Teilstücken von 10 m^2 Größe in drei-- bis viermaliger Wiederholung nachgewiesen. Jedes Sterilisationsmittel wurde mindestens 5 Jahre lang geprüft.
(§2) Die Entwicklung der Perioden der Organogenese wird zytologisch überwacht. Die Behandlung von Pflanzen mit dem Sterilisationsmittel erfolgt am Anfang der fünften Periode der Organogenese nach Kupermann.
(§3) Mit dem Ahrenschieben verwirklicht man die Isolierung von Hauptähren und anderen Stockwerken in Pergamentbeuteln. Bei Weizen und Tritikale werden Einzelisolatoren verwendet. Bei Roggen schließt man je 1 Ähre von 5 bis 7 verschiedenen nebeneinander befindlichen Pflanzen in einen gemeinsamen Isolator ein. Bei Hirse wird jede Rispe getrennt isoliert. Der Sterilitätsprozentsatz (X) für Weizen, Roggen, Tritikale und Hirse wird nach der Formel [formula]
(§4) Samen von unbehandelten Kontrollpflanzen ermittelt.
(§5) Die Kornzahl in nicht isolierten Ähren von Kontrollpflanzen wird bedingt für 100% Ansetzen bei freier Bestäubung angenommen.
(§6) Um zuverlässige Angaben zu erhalten, verwendet man 20 bis 25 Isolatoren jeder Wiederholung für Weizen und Tritikale, 10 bis 15 Isolatoren jeder Wiederholung für Roggen und Hirse.
Pflanzen von diploidem Roggen Sorte Chulpan werden in der V. Periode der Organogenese (nach Kupermann) mit einer 1%igen wäßrigen Emulsion von Kaliumsalz der 2-Methyl-3-zy- klohexenkarbonsäure, 2-Methyl-3-zyklohexenkarbonsäuremethyl- ester, Kaliumsalz der Salizylsäure, Phthalsäurediallylester, Phthalsäurediisobutylester, Phthalsäuredipropylester, Phthalsäuredihexylester, Phthalsäuredibutylester. Die Emulsion enthält 0,01 Masse% Tetrahydrofuran und 0,1 Masse% C12-C14--Kalziumalkylbenzolsulfonat. Der Verbrauch an Präparat beträgt 8 kg/ha. Als Kuntrolle dienen Pflanzen, behandelt mit einem Verdünner ohne Sterilisationsmittel. […]

For assay [2], the system named is Hirse Sorte Mironovskoe 94. The settings on record: V. Periode, 1%ige wäßrige Emulsion, 10 kg/ha; for Prozentsatz des Ansetzens der Körner bei freier Bestäubung: control = 100.
Text: as §1, §2, §3, §4, §5, §6
Pflanzen der Hirse Sorte Mironovskoe 94 werden in der V. Periode der Organogenese (nach Kupermann) mit einer l%igen wäßrigen Emulsion von Kaliumsalz der 2-Methyl-3-zyklohexen- karbonsäure, 2-Methyl-3-zyklohexenkarbonsäuremethylester, Phthalsäuredihexylester, Phthalsäuredibutylester, Phthalsäuredipropylester, Natriumsalz der p-Hydroxybenzoesäure, Phthalsäurediäthylester, Phthalsäurediallylester behandelt. Die Emulsion enthält 0,01 Masse% Dimethylformamid und 0,1 Masse% C12-C14-Kalziumalkylbenzolsulfonat. Der Verbrauch an Präparat beträgt 10 kg/ha. Als Kontrolle dienen Pflanzen, behandelt mit einem Verdünner ohne Sterilisationsmittel. Die Prüfergebnisse sind in der Tabelle 17 angeführt. […] Periode der Organogenese erhalten.

Assay [3] concerns Winterweizen Mironovskaya 808. The settings on record: treated in V. Periode der Organogenese, 2%ige wäßrige Emulsion, 20 kg/ha; for Prozentsatz des Ansetzens der Körner bei freier Bestäubung: control = 100.
Text: as §1, §2, §3, §4, §5, §6
Pflanzen des Winterweizens Sorte Mironovskaya 808 werden in der V. Periode der Organogenese durch Zerstäubung einer 2%igen wäßrigen Emulsion des Kaliumsalzes von 2-Methyl-3-zyklohexenkarbonsäure mit Hilfe einer Rückenspritze behandelt. Als Emulgiermittel setzt man 0,1 Masse% C12--C14 - Kalziumalkylbenzolsulfonat zu. Als Adjuvans führt man in die Emulsion 0,01 Masse% Dimethylformamid ein. Der Verbrauch an Präparat beträgt 20 kg/ha. Als Kontrolle dienen Pflanzen, behandelt mit einem Verdünner ohne Sterilisationsmittel. Die Ergebnisse sind in der Tabelle 1 angegeben. […] Periode der Organogenese erhalten.
Der Prozeß wird analog zu dem in Beispiel 1 beschriebenen durchgeführt. Als Sterilisationsmittel verwendet man eine 2%ige wäßrige Emulsion von 2-Methyl-3-zyklohexenkarbon- säuremethylester, Ammoniumsalz der 2-Methyl-[…], Phthalsäuredihexylester, Phthalsäuredibutylester, Phthalsäuredipropylester, Phthalsäurediisobutylester, Phthalsäurediäthylester. Die Ergebnisse sind in der Tabelle 1 angeführt. […]

The mark [4] stands for this setting: Chulpan, V. Periode, 1%ige wäßrige Emulsion, 8 kg/ha.
The mark [5] stands for this setting: Chulpan, V. Periode, 1%ige wäßrige Emulsion, 8 kg/ha, control = 100.

Structures are written as SMILES. Read-outs that look alike come from different tables or passages of the source.

Regarding `O=C(O)c1ccccc1O` [Beispiel 62, Kaliumsalz der Salizylsäure], in assay [1] (setting [4]), the “Kornzahl der Ähre bei freier Bestäubung” value is listed as 50,4 and the “Kornzahl der Ähre im Isolator” value is on record as 10,4. Also, in assay [1], the pest or weed control at 8000 g/ha was 79.7% and the response vs control in vivo at 8000 g/ha turned out to be 88.7%.
Consider `CC1C=CCCC1C(=O)[O-].[K+]` (stereo not shown) [Beispiel 89, Kaliumsalz der 2-Methyl-3-zyklohexen-karbonsäure], for which, in assay [2], the “Kornzahl der Rispe bei freier Bestäubung” value was 304,3, the “Kornzahl der Rispe im Isolator” value is on record as 0,0, the “Prozentsatz der Sterilität” value is given as 100,0% and the “Prozentsatz des Ansetzens der Körner bei freier Bestäubung” value is listed as 80,2%.
On the same counts, the results for `CCOC(=O)c1ccccc1C(=O)OCC` [Beispiel 95, Phthalsäurediäthylester] are 352,5, 0,0, 100,0% and 92,6%.
As for `CC1C=CCCC1C(=O)[O-].[K+]` (stereo not shown) [Beispiel 1, Kaliumsalzes von 2-Methyl-3-zyklohexenkarbonsäure], in assay [3], the “Kornzahl der Ähre bei freier Bestäubung” value is reported as 38,6, the “Kornzahl der Ähre im Isolator” value is 3,2, the “Prozentsatz der Sterilität” value is 91,5% and the “Prozentsatz des Ansetzens der Körner bei freier Bestäubung” value is listed as 95,5%.
As to `CCCOC(=O)c1ccccc1C(=O)OCCC` [Beispiel 6, Phthalsäuredipropylester], in assay [3], the “Kornzahl der Ähre bei freier Bestäubung” value was 39,0, the “Kornzahl der Ähre im Isolator” value was 5,0, the “Prozentsatz der Sterilität” value was 86,8% and the “Prozentsatz des Ansetzens der Körner bei freier Bestäubung” value was 96,5%.
As for `CCCCCCOC(=O)c1ccccc1C(=O)OCCCCCC` [Beispiel 66, Phthalsäuredihexylester], in assay [1] (setting [4]), the “Kornzahl der Ähre bei freier Bestäubung” value is 57,0 and the “Kornzahl der Ähre im Isolator” value was 0,0. For the same compound, in assay [1], the pest or weed control at 8000 g/ha was 100% and the response vs control in vivo at 8000 g/ha came to 100%.
`CCCCCCOC(=O)c1ccccc1C(=O)OCCCCCC` [Beispiel 91, Phthalsäuredihexylester]: in assay [2], the “Kornzahl der Rispe bei freier Bestäubung” value is on record as 311,5, the “Kornzahl der Rispe im Isolator” value is 0,0, the “Prozentsatz der Sterilität” value is listed as 100,0% and the “Prozentsatz des Ansetzens der Körner bei freier Bestäubung” value is 82,1%.
For `COC(=O)C1CCC=CC1C` (stereo not shown) [Beispiel 90, 2-Methyl-3-zyklohexenkarbonsäuremethylester], in that order: 327,6, 0,0, 100,0% and 86,3%.
On to `CCCCOC(=O)c1ccccc1C(=O)OCCCC` [Beispiel 67, Phthalsäuredibutylester], for which, in assay [1] (setting [4]), the “Kornzahl der Ähre bei freier Bestäubung” value is 50,5 and the “Kornzahl der Ähre im Isolator” value is listed as 0,0. For the same compound, in assay [1], the pest or weed control at 8000 g/ha was found to be 100% and the response vs control in vivo at 8000 g/ha worked out at 88.9%.
For the compound `CCCOC(=O)c1ccccc1C(=O)OCCC` [Beispiel 65, Phthalsäuredipropylester], in assay [1] (setting [4]), the “Kornzahl der Ähre bei freier Bestäubung” value is recorded as 53,2 and the “Kornzahl der Ähre im Isolator” value was 0,0. In addition, in assay [1], the pest or weed control at 8000 g/ha was 100% and the response vs control in vivo at 8000 g/ha worked out at 93.6%.
Turning to `CCOC(=O)c1ccccc1C(=O)OCC` [Beispiel 8, Phthalsäurediäthylester], in assay [3], the “Kornzahl der Ähre bei freier Bestäubung” value is listed as 39,8, the “Kornzahl der Ähre im Isolator” value was 0,5, the “Prozentsatz der Sterilität” value is 98,7% and the “Prozentsatz des Ansetzens der Körner bei freier Bestäubung” value is 98,5%.
In the case of `COC(=O)C1CCC=CC1C` (stereo not shown) [Beispiel 61, 2-Methyl-3-zyklohexenkarbonsäuremethyl-ester], in assay [1] (setting [4]), the “Kornzahl der Ähre bei freier Bestäubung” value is given as 51,0, the “Kornzahl der Ähre im Isolator” value is reported as 0,0 and the percent sterility at 8000 g/ha turned out to be 100%. The response vs control in vivo at 8000 g/ha in assay [1] (setting [5]) was found to be 89.8%.
Take `CC1C=CCCC1C(=O)O.N` (stereo not shown) [Beispiel 3, Ammoniumsalz der 2-Methyl-23-zyklohexen-karbonsäure]: in assay [3], the “Kornzahl der Ähre bei freier Bestäubung” value is reported as 39,2, the “Kornzahl der Ähre im Isolator” value is recorded as 0,6, the “Prozentsatz der Sterilität” value was 98,4% and the “Prozentsatz des Ansetzens der Körner bei freier Bestäubung” value is reported as 97,0%.
With `CC(C)COC(=O)c1ccccc1C(=O)OCC(C)C` [Beispiel 7, Phthalsäurediisobutylester], in assay [3], the “Kornzahl der Ähre bei freier Bestäubung” value is 37,7, the “Kornzahl der Ähre im Isolator” value was 0,2, the “Prozentsatz der Sterilität” value is 99,5% and the “Prozentsatz des Ansetzens der Körner bei freier Bestäubung” value was 93,3%.
`C=CCOC(=O)c1ccccc1C(=O)OCC=C` [Beispiel 63, Phthalsäurediallylester]: in assay [1] (setting [4]), the “Kornzahl der Ähre bei freier Bestäubung” value is listed as 53,7, the “Kornzahl der Ähre im Isolator” value was 0,3 and the percent sterility at 8000 g/ha amounted to 99.4%. In addition, the response vs control in vivo at 8000 g/ha in assay [1] came to 94.5%.
Take `O=C([O-])c1ccc(O)cc1.[Na+]` [Beispiel 94, Natriumsalz der p-Hydroxybenzoesäure]: in assay [2], the “Kornzahl der Rispe bei freier Bestäubung” value was 400,7, the “Kornzahl der Rispe im Isolator” value was 0,0, the “Prozentsatz der Sterilität” value is 100,0% and the “Prozentsatz des Ansetzens der Körner bei freier Bestäubung” value is 105,6%.
On to `C=CCOC(=O)c1ccccc1C(=O)OCC=C` [Beispiel 96, Phthalsäurediallylester], for which, in assay [2], the “Kornzahl der Rispe bei freier Bestäubung” value is given as 335,2, the “Kornzahl der Rispe im Isolator” value is given as 0,0, the “Prozentsatz der Sterilität” value is on record as 100,0% and the “Prozentsatz des Ansetzens der Körner bei freier Bestäubung” value was 88,3%.
`CC(C)COC(=O)c1ccccc1C(=O)OCC(C)C` [Beispiel 64, Phthalsäurediisobutylester]: in assay [1] (setting [4]), the “Kornzahl der Ähre bei freier Bestäubung” value was 52,2 and the “Kornzahl der Ähre im Isolator” value was 0,5. Also, in assay [1], the pest or weed control at 8000 g/ha turned out to be 99% and the response vs control in vivo at 8000 g/ha turned out to be 91.9%.
On to `CCCCCCOC(=O)c1ccccc1C(=O)OCCCCCC` [Beispiel 4, Phthalsäuredihexylester], for which, in assay [3], the “Kornzahl der Ähre bei freier Bestäubung” value is listed as 38,2, the “Kornzahl der Ähre im Isolator” value is recorded as 4,2, the “Prozentsatz der Sterilität” value was 88,9% and the “Prozentsatz des Ansetzens der Körner bei freier Bestäubung” value is 94,5%.
As to `CC1C=CCCC1C(=O)O` (stereo not shown) [Beispiel 60, Kaliumsalz der 2-Methyl-3-zy-klohexenkarbonsäure], in assay [1] (setting [4]), the “Kornzahl der Ähre bei freier Bestäubung” value is reported as 55,2, the “Kornzahl der Ähre im Isolator” value is on record as 0,0 and the percent sterility at 8000 g/ha was determined as 100%. In assay [1] (setting [5]), the response vs control in vivo at 8000 g/ha was determined as 97.1%.
In the case of `COC(=O)C1CCC=CC1C` (stereo not shown) [Beispiel 2, 2-Methyl-3-zyklohexenkarbon-säuremethylester], in assay [3], the “Kornzahl der Ähre bei freier Bestäubung” value is listed as 30,1, the “Kornzahl der Ähre im Isolator” value is on record as 0,0, the “Prozentsatz der Sterilität” value is 100,0% and the “Prozentsatz des Ansetzens der Körner bei freier Bestäubung” value is 74,5%.
For `CCCCOC(=O)c1ccccc1C(=O)OCCCC` [Beispiel 5, Phthalsäuredibutylester], in that order: 31,7, 0,0, 100,0% and 78,5%.
